Data published in patent publication US6037447A, “Glycopeptide compounds” (priority 1998, dated 2000).
In brackets after ≈: the same amount, converted by molar mass.

Legend:
[1] = system: vancomycin-resistant enterococci; assay: In Vitro Activity Against Enterococci, vancomycin-resistant strains; format: cell-based; conditions: representative vancomycin-resistant enterococci (Enterococcus faecium and Enterococcus faecalis)
Experimental: (§1) The minimal inhibitory concentrations (MICs) were determined using a standard broth micro-dilution assay.

[2] = system: Enterococcus faecium 180-1; assay: Standard broth micro-dilution MIC, Enterococcus faecium 180-1; format: cell-based
Experimental: as §1

[3] = system: Staphylococcus epidermidis 270; assay: Standard broth micro-dilution MIC, Staphylococcus epidermidis 270; format: cell-based
Experimental: as §1

[4] = system: Streptococcus pneumoniae P1; assay: Standard broth micro-dilution MIC, Streptococcus pneumoniae P1; format: cell-based
Experimental: as §1

[5] = system: Staphylococcus aureus SA1199A; assay: Standard broth micro-dilution MIC, Staphylococcus aureus SA1199A; format: cell-based
Experimental: as §1

[6] = system: Staphylococcus aureus S13E; format: cell-based
Experimental: as §1

[7] = system: Staphylococcus aureus SA119913; assay: Standard broth micro-dilution MIC, Staphylococcus aureus SA119913; format: cell-based
Experimental: as §1

[8] = system: Staphylococcus aureus SA1199; assay: Standard broth micro-dilution MIC, Staphylococcus aureus SA1199; format: cell-based
Experimental: as §1

[9] = system: vancomycin-sensitive enterococci; assay: In Vitro Activity Against Enterococci, vancomycin-sensitive strains; format: cell-based, Enterococcus faecium and Enterococcus faecalis; conditions: for mean geometric MIC, Vancomycin Sensitive Strains: representative vancomycin-sensitive enterococci (Enterococcus faecium and Enterococcus faecalis)
Experimental: as §1

[10] = system: Staphylococcus aureus X400; assay: Standard broth micro-dilution MIC, Staphylococcus aureus X400; format: cell-based
Experimental: as §1

[11] = system: Staphylococcus aureus X778; assay: Standard broth micro-dilution MIC, Staphylococcus aureus X778; format: cell-based
Experimental: as §1

[12] = system: Staphylococcus aureus 491; assay: Standard broth micro-dilution MIC, Staphylococcus aureus 491; format: cell-based
Experimental: as §1

[13] = system: Staphylococcus aureus 446; assay: Standard broth micro-dilution MIC, Staphylococcus aureus 446; format: cell-based
Experimental: as §1

[14] = system: Staphylococcus haemolyticus 415; assay: Standard broth micro-dilution MIC, Staphylococcus haemolyticus 415; format: cell-based
Experimental: as §1

[15] = system: Staphylococcus aureus 447; assay: Standard broth micro-dilution MIC, Staphylococcus aureus 447; format: cell-based
Experimental: as §1

[16] = system: Staphylococcus haemolyticus 105; assay: Standard broth micro-dilution MIC, Staphylococcus haemolyticus 105; format: cell-based
Experimental: as §1

[17] = system: Staphylococcus aureus 489; assay: Standard broth micro-dilution MIC, Staphylococcus aureus 489; format: cell-based
Experimental: as §1

[18] = system: Streptococcus pyogenes C203; assay: Standard broth micro-dilution MIC, Streptococcus pyogenes C203; format: cell-based
Experimental: as §1

[19] = system: Enterococcus faecalis 2041; assay: Standard broth micro-dilution MIC, Enterococcus faecalis 2041; format: cell-based
Experimental: as §1

Enterococcus faecium 180 = assay: Standard broth micro-dilution MIC, Enterococcus faecium 180; format: cell-based
Experimental: as §1

[20] = system: Enterococcus faecalis 276; assay: Standard broth micro-dilution MIC, Enterococcus faecalis 276; format: cell-based
Experimental: as §1

[21] = system: Enterococcus gallinarum 245; assay: Standard broth micro-dilution MIC, Enterococcus gallinarum 245; format: cell-based
Experimental: as §1

Question: Which “mean geometric MIC, Vancomycin Resistant Strains” value [1] does the source give for “5-n-pentyl-1,3-phenylene-bis[(oxy-1,3-n-propyleneoxy-4,1-phenylene)methylene]-bis-[vancomycin] [Compound 61]” here?
Answer: Its value is 2 µg/mL.

Question: What about the MIC [2] of the same compound?
Answer: Its MIC is 0.5 µg/mL.

Question: What about the MIC [3] of the same compound?
Answer: Its MIC is 4 µg/mL.

Question: What about the MIC [4] of the same compound?
Answer: The MIC was 2 µg/mL.

Question: And the MIC [5]?
Answer: The MIC was 1 µg/mL.

Question: And the MIC [6]?
Answer: The MIC was 16 µg/mL.

Question: And the MIC [7]?
Answer: Its MIC is 16 µg/mL.

Question: What about the MIC [8] of the same compound?
Answer: Its MIC is 8 µg/mL.

Question: What about the “mean geometric MIC, Vancomycin Sensitive Strains” value [9] of the same compound?
Answer: Its value is 1.2 µg/mL.

Question: And the MIC [10]?
Answer: Its MIC is 8 µg/mL.

Question: What about the MIC [11] of the same compound?
Answer: Its MIC is 4 µg/mL.

Question: And the MIC [12]?
Answer: The MIC was 2 µg/mL.

Question: What about the MIC [13] of the same compound?
Answer: The MIC was 8 µg/mL.

Question: What about the MIC [14] of the same compound?
Answer: Its MIC is 8 µg/mL.

Question: What about the MIC [15] of the same compound?
Answer: Its MIC is 16 µg/mL.

Question: What about the MIC [16] of the same compound?
Answer: Its MIC is 1 µg/mL.

Question: And the MIC [17]?
Answer: The MIC was 4 µg/mL.

Question: What about the MIC [18] of the same compound?
Answer: The MIC was 1 µg/mL.

Question: What about the MIC [19] of the same compound?
Answer: Its MIC is 2 µg/mL.

Question: And the MIC (Enterococcus faecium 180)?
Answer: The MIC was 1 µg/mL.

Question: And the MIC [20]?
Answer: Its MIC is 2 µg/mL.

Question: And the MIC [21]?
Answer: The MIC was 1 µg/mL.

Question: Which results are given for `CN[C@H](CC(C)C)C(=O)N[C@H]1C(=O)N[C@@H](CC(N)=O)C(=O)N[C@H]2C(=O)N[C@H]3C(=O)N[C@H](C(=O)N[C@H](C(=O)O)c4cc(O)cc(O)c4-c4cc3ccc4O)[C@H](O)c3ccc(c(Cl)c3)Oc3cc2cc(c3O[C@@H]2O[C@H](CO)[C@@H](O)[C@H](O)[C@H]2O[C@H]2C[C@](C)(N)[C@H](O)[C@H](C)O2)Oc2ccc(cc2Cl)[C@H]1O` [Vancomycin, reference compound]?
Answer: MIC ([9]; read-out: mean geometric MIC, Vancomycin Sensitive Strains): 3.9 µg/mL (≈ 2.69 µM); MIC [19]: 2 µg/mL (≈ 1.38 µM); MIC (Enterococcus faecium 180): > 64 µg/mL; MIC [20]: 1 µg/mL (≈ 0.69 µM)

Question: For “1,3-phenylene-bis-[(oxy-1,3-n-propyleneoxy-4,1-phenylene)]-methylene]-bis-[vancomycin] [Compound 12]”, which “mean geometric MIC, Vancomycin Resistant Strains” value [1] is on record?
Answer: The value was 4.0 µg/mL.

Question: What about the MIC [3] of the same compound?
Answer: Its MIC is 4 µg/mL.

Question: What about the MIC [4] of the same compound?
Answer: The MIC was 0.06 µg/mL.

Question: What about the MIC [5] of the same compound?
Answer: The MIC was 1 µg/mL.

Question: And the MIC [6]?
Answer: The MIC was 4 µg/mL.

Question: What about the MIC [7] of the same compound?
Answer: Its MIC is 4 µg/mL.

Question: What about the MIC [8] of the same compound?
Answer: The MIC was 4 µg/mL.

Question: What about the “mean geometric MIC, Vancomycin Sensitive Strains” value [9] of the same compound?
Answer: The value was 0.66 µg/mL.

Question: What about the MIC [10] of the same compound?
Answer: Its MIC is 2 µg/mL.

Question: What about the MIC [11] of the same compound?
Answer: Its MIC is 2 µg/mL.

Question: And the MIC [12]?
Answer: Its MIC is 2 µg/mL.

Question: And the MIC [13]?
Answer: Its MIC is 8 µg/mL.

Question: What about the MIC [14] of the same compound?
Answer: The MIC was 4 µg/mL.

Question: What about the MIC [15] of the same compound?
Answer: The MIC was 8 µg/mL.

Question: And the MIC [16]?
Answer: Its MIC is 4 µg/mL.

Question: What about the MIC [17] of the same compound?
Answer: The MIC was 2 µg/mL.

Question: What about the MIC [18] of the same compound?
Answer: The MIC was 0.06 µg/mL.

Question: And the MIC [19]?
Answer: Its MIC is 0.25 µg/mL.

Question: And the MIC (Enterococcus faecium 180)?
Answer: The MIC was at most 0.06 µg/mL.

Question: What about the MIC [20] of the same compound?
Answer: Its MIC is 1 µg/mL.

Question: And the MIC [21]?
Answer: The MIC was 0.06 µg/mL.

Question: What does the source list for “N^4 -(4(3-(3-(3-(p-formylphenoxy)-n-propyloxy)phenoxy)-n-propyloxy)-benzyl)vancomycin [Compound 52]”?
Answer: mean geometric MIC, Vancomycin Resistant Strains [1]: 4.8 µg/mL; mean geometric MIC, Vancomycin Sensitive Strains [9]: 0.093 µg/mL

Question: How did the “mean geometric MIC, Vancomycin Resistant Strains” value [1] turn out when `CN[C@H](CC(C)C)C(=O)N[C@H]1C(=O)N[C@@H](CC(N)=O)C(=O)N[C@H]2C(=O)N[C@H]3C(=O)N[C@H](C(=O)N[C@H](C(=O)O)c4cc(O)cc(O)c4-c4cc3ccc4O)[C@H](O[C@H]3C[C@](C)(N)[C@@H](O)[C@H](C)O3)c3ccc(c(Cl)c3)Oc3cc2cc(c3O[C@@H]2O[C@H](CO)[C@@H](O)[C@H](O)[C@H]2O[C@H]2C[C@](C)(N)[C@@H](O)[C@H](C)O2)Oc2ccc(cc2Cl)[C@H]1O` [Compound A82846B, A82846B, reference compound] was run?
Answer: Its value is 29 µg/mL.

Question: What about the MIC [5] of the same compound?
Answer: The MIC was at most 0.06 µg/mL.

Question: What about the “mean geometric MIC, Vancomycin Sensitive Strains” value [9] of the same compound?
Answer: Its value is 0.22 µg/mL.

Question: What about the MIC [17] of the same compound?
Answer: Its MIC is at most 0.06 µg/mL.

Question: And the MIC (Enterococcus faecium 180)?
Answer: The MIC was 8 µg/mL (≈ 5.02 µM).
